Earlier results as cited in patent publication US20260000700A1, “TARGETED LINEAR CONJUGATES COMPRISING POLYETHYLENEIMINE AND POLYETHYLENE GLYCOL AND POLYPLEXES COMPRISING THE SAME” (TARGIMMUNE THERAPEUTICS AG, priority 2022, published 2026).

Target: EGFR (Homo sapiens, UniProt P00533)

Sequence: YHWYGYTPQNVI [GE-11]
- Kd: 22 nM
